Reference: US5786324A, “Synthetic peptides with bactericidal activity and endotoxin neutralizing activity for gram negative bacteria and methods for their use” (priority 1994, dated 1998)
Where two headings read alike, the source gives them in different places. Positions of bridges follow the written chain, without caps; N, C: chain ends. Residues, ends and D or L forms follow the SMILES beside them. No end group written: not given here.

Legend:
[1] = system: Pseudomonas aeruginosa type 1; format: cell-based; details: pH 5.6; for Effective Dose Bactericidal pH 5.6 P. aeruginosa Molar Concentration: Table 5
Procedure: Bactericidal activity can be evaluated against a variety of bacteria such as Pseudomonas spp including aeruginosa and P. cepacia, E. coli B, and Staphylococcus aureus. The preferred organism is P. aeruginosa. Bactericidal activity is determined by identifying the effective dose for killing as the molar concentration of the peptide which results in at least a 60% killing of the bacteria, as determined by standard methods. Preferably, the peptide has an effective dose at a concentration of about 1×10^-4 M to about 1×10^-10 M, and more preferably 1×10^-7 M to 1×10^-9M . […] The effective dose for bactericidal activity of B/PI is seen at about […] . Bactericidal activity can also be determined by calculating a lethal dose 50 (LD50) using standard methods. The LD50 is that amount of peptide or protein that kills 50% of the bacteria when measured using standard dose response methods. A bactericidal peptide preferably has an LD50 of about 10^-4 M to about 10^-9 M , more preferably about 10^-7 to 10^-9 M .
The synthetically produced peptides were assayed for bactericidal activity against Pseudomonas aeruginosa, type 1, P. cepacia ATCC 25608, E. coli B, and Staphylococcus aureus 502A by standard methods.
Pseudomonas aeruginosa type 1 is a clinical isolate maintained in the laboratory since 1972. The isolate remains a smooth strain and was serotyped by the scheme of Homma. Homma, Jpn. J. Exp. Med., 46:329 (1976). A rough strain E. coli B and S. aureus 502A were obtained from Paul Quie, University of Minnesota. The characteristics of the S. aureus strain have been described in Shinefield et al., Amer. J. Dis. Chil., 105:646 (1963). Pseudomonas cepacia ATCC 25608 was purchased from the American Type Culture Collection in 1980. S. aureus and E. coli were maintained on nutrient agar plates and the Pseudomonas strains were maintained on blood agar plates.
Pyrogen-free solutions were used throughout this assay and all methods which follow. Log phase bacteria were prepared from a culture in brain heart infusion broth as previously described except that bacteria were washed and resuspended in saline with adjustment to an optical density at 650 nm which would yield 3×10^8 CFU/ml. Bacteria were then diluted 1:10 in 0.08M citrate phosphate buffer, pH 5.6 or pH 7.0, for use in the assay. S. aureus rapidly lost viability in the pH 5.6 buffer and was studied only at pH 7.0. Bactericidal activity was determined by dose response and where an LD50 is indicated, it was determined by linear regression.

E. coli 055: B5 LPS = test: Limulus amoebocyte lysate assay, neutralization of endotoxin; format: biochemical; details: for Effective Dose Endotoxin Neutralization (Molar Concentration): Table 8, LAL
Description: The peptide selected can also have endotoxin neutralizing activity. […] Endotoxin neutralizing activity can also be measured by calculating an inhibitory dose 50 […] using standard does response methods. An inhibitory dose 50 is that amount of peptide that can inhibit 50% of the activity of endotoxin. Endotoxin activity can also be measured by determining the amount of release of tumor necrosis factor alpha (TNFα) from a macrophage cell line or by evaluating the symptoms of shock in animals. Peptides preferably neutralized endotoxin at a molar concentration of about 1×10^-4 M to about 10^-8 M , more preferably about 10^-5 M to about 10^-6 M .
The ability of synthetic peptides to neutralize endotoxin was detected with the E-TOXATE kit manufactured by Sigma Chemicals, St. Louis, Mo. […] Peptide was incubated with LPS at room temperature for 10 minutes in 100 μl of a 1:2 dilution of pyrogen-free saline, pH 6.4. The reaction was started by addition of 100 μl of amoebocyte lysate and the final volume was 200 μl.
^a The dose of peptide required to inhibit clotting of LAL by 100%.
Each tube contained 0.04 endotoxin units of E. coli LPS.

Row | Compound | Effective Dose Bactericidal pH 5.6 P. aeruginosa Molar Concentration [1] | Effective Dose Endotoxin Neutralization (Molar Concentration) (E. coli 055: B5 LPS) | also measured
1 | CC(C)C[C@@H]1NC(=O)[C@H](Cc2ccccc2)NC(=O)[C@H](CCCNC(=N)N)NC(=O)[C@H](CCCCN)NC(=O)[C@H](CCC(N)=O)NC(=O)[C@H](C)NC(=O)[C@H](CCCCN)NC(=O)[C@H](Cc2c[nH]c3ccccc23)NC(=O)[C@H](CCCCN)NC(=O)[C@@H](N)CSSC[C@@H](C(=O)O)NC(=O)[C@H](CCCCN)NC1=O [cyclic 20a] | – | – | % Killing of 5 × 10^6 Bacteria ([1]; type 1, 3.0e-5 M): 89%
2 | kisgkwkaqkrflkmsgnf [Peptide 35] | 1.5 × 10^-7 M | 450 µM | % Killing of 5 × 10^6 Bacteria ([1]; P. aeruginosa, 1.5 × 10^-7 M): 58%; neutralization of endotoxin in the LAL (in words) (E. coli 055: B5 LPS; highest concentration tested 4.5×10^-4 M): did not neutralize endotoxin
3 | sdsflkikhlgkghysfysmdirefq [Peptide 12] | 1.5 × 10^-5 M | 75 µM | % Killing of 5 × 10^6 Bacteria ([1]; P. aeruginosa, 1.5 × 10^-5 M): 58%
4 | CC[C@H](C)[C@@H]1NC(=O)[C@H](CCCCN)NC(=O)[C@@H](N)CSSC[C@@H](C(=O)O)NC(=O)[C@H](Cc2ccccc2)NC(=O)[C@H](CC(N)=O)NC(=O)CNC(=O)[C@H](CO)NC(=O)[C@H](CCSC)NC(=O)[C@H](CCCCN)NC(=O)[C@H](CC(C)C)NC(=O)[C@H](Cc2ccccc2)NC(=O)[C@H](CCCNC(=N)N)NC(=O)[C@H](CCCCN)NC(=O)[C@H](CCC(N)=O)NC(=O)[C@H](C)NC(=O)[C@H](CCCCN)NC(=O)[C@H](Cc2c[nH]c3ccccc23)NC(=O)[C@H](CCCCN)NC(=O)CNC(=O)[C@H](CO)NC1=O [cyclic 36] (H-CKISGKWKAQKRFLKMSGNFC-OH; disulfide 1-21) | – | – | % Killing of 5 × 10^6 Bacteria ([1]; type 1, 1.5e-7 M): 76%
5 | kkkffrlakq [Peptide 27] | 3.0 × 10^-5 M | -- (not active at concentrations of 4.5 × 10^-4 M or less) | % Killing of 5 × 10^6 Bacteria ([1]; P. aeruginosa, 3.0 × 10^-5 M): 49%; bacterial killing activity compared with parent peptide (in words) ([1]; P. aeruginosa): little or no effect
6 | kwkaqkrflkc [Peptide 20b] | 3.0 × 10^-6 M | -- (not active at concentrations of 4.5 × 10^-4 M or less) | % Killing of 5 × 10^6 Bacteria ([1]; P. aeruginosa, 3.0 × 10^-6 M): 75%
7 | CC[C@H](C)[C@H](NC(=O)[C@H](CCCCN)NC(=O)[C@@H](N)CSSC[C@H](N)C(=O)N[C@@H](CCCCN)C(=O)N[C@H](C(=O)N[C@@H](CO)C(=O)NCC(=O)N[C@@H](CCCCN)C(=O)N[C@@H](Cc1c[nH]c2ccccc12)C(=O)N[C@@H](CCCCN)C(=O)N[C@@H](C)C(=O)N[C@@H](CCC(N)=O)C(=O)N[C@@H](CCCCN)C(=O)N[C@@H](CCCNC(=N)N)C(=O)N[C@@H](Cc1ccccc1)C(=O)N[C@@H](CC(C)C)C(=O)N[C@@H](CCCCN)C(=O)O)[C@@H](C)CC)C(=O)N[C@@H](CO)C(=O)NCC(=O)N[C@@H](CCCCN)C(=O)N[C@@H](Cc1c[nH]c2ccccc12)C(=O)N[C@@H](CCCCN)C(=O)N[C@@H](C)C(=O)N[C@@H](CCC(N)=O)C(=O)N[C@@H](CCCCN)C(=O)N[C@@H](CCCNC(=N)N)C(=O)N[C@@H](Cc1ccccc1)C(=O)N[C@@H](CC(C)C)C(=O)N[C@@H](CCCCN)C(=O)O [dimer 8b] | – | – | % Killing of 5 × 10^6 Bacteria ([1]; type 1, 1.5e-6 M): 52%
8 | qkrflkmsgn [Peptide 33] | -- (not active at concentrations of 1.2 × 10^-4 M or less) | 450 µM | –
9 | CSCC[C@H](NC(=O)[C@H](CCCCN)NC(=O)[C@H](CC(C)C)NC(=O)[C@H](Cc1ccccc1)NC(=O)[C@H](CCCNC(=N)N)NC(=O)[C@H](CCCCN)NC(=O)[C@H](CCC(N)=O)NC(=O)[C@H](C)NC(=O)[C@H](CCCCN)NC(=O)[C@H](Cc1c[nH]c2ccccc12)NC(=O)[C@H](CCCCN)NC(=O)[C@@H](N)CS)C(=O)N[C@@H](CO)C(=O)NCC(=O)O [Peptide 9b, ckwkaqkrflkmsg] | – | – | % Killing of 5 × 10^6 Bacteria ([1]; type 1, 1.5e-6 M): 96%
10 | kisgkwkaqk [Peptide 32] | 1.25 × 10^-4 M | 450 µM | % Killing of 5 × 10^6 Bacteria ([1]; P. aeruginosa, 1.25 × 10^-4 M): 33%
11 | CSCC[C@H](NC(=O)[C@H](CCCCN)NC(=O)[C@H](CC(C)C)NC(=O)[C@H](Cc1ccccc1)NC(=O)[C@H](CCCNC(=N)N)NC(=O)[C@H](CCCCN)NC(=O)[C@H](CCC(N)=O)NC(=O)[C@H](C)NC(=O)[C@H](CCCCN)NC(=O)[C@H](Cc1c[nH]c2ccccc12)NC(=O)[C@@H](N)CCCCN)C(=O)N[C@@H](CO)C(=O)NCC(=O)O [Peptide 9a, kwkaqkrflkmsg] | – | – | % Killing of 5 × 10^6 Bacteria ([1]; type 1, 6.0e-6 M): 67%
12 | ckisgkwkaqkrflkmsgnfc [Peptide 36] | 1.2 × 10^-4 M | 750 µM | % Killing of 5 × 10^6 Bacteria ([1]; P. aeruginosa, 1.2 × 10^-4 M): 39%
13 | msgnfdlsie [Peptide 29] | -- (not active at concentrations of 1.2 × 10^-4 M or less) | 220 µM | –
14 | ckwkaqkrflkc (CKWKAQKRFLKC; not fully specified (bridges); also: cyclic, kind and places of ring not given here) [Peptide 20a] | 3.0 × 10^-6 M | -- (not active at concentrations of 4.5 × 10^-4 M or less) | % Killing of 5 × 10^6 Bacteria ([1]; P. aeruginosa, 3.0 × 10^-6 M): 76%
15 | cnanikisgkwkaqkrflkmsgnfdlsic [Peptide 23] | 3 × 10^-7 M | 30 µM | % Killing of 5 × 10^6 Bacteria ([1]; P. aeruginosa, 3 × 10^-7 M): 67%
16 | CC(C)C[C@@H]1NC(=O)[C@H](Cc2ccccc2)NC(=O)[C@H](CCCCN)NC(=O)[C@@H](NC(=O)[C@H](CCCCN)NC(=O)[C@@H](NC(=O)[C@@H](N)CCCCN)[C@@H](C)O)CSSC[C@@H](C(=O)O)NC(=O)[C@H](CCCCN)NC(=O)[C@H](CCCCN)NC1=O [cyclic 25, reference compound] (H-KTKCKFLKKC-OH; disulfide 4-10) | – | – | % Killing of 5 × 10^6 Bacteria ([1]; type 1, 1.5e-5 M): 73%
17 | CC[C@H](C)[C@H](NC(=O)[C@H](CCCCN)NC(=O)[C@@H](N)CS)C(=O)N[C@@H](CO)C(=O)NCC(=O)N[C@@H](CCCCN)C(=O)N[C@@H](Cc1c[nH]c2ccccc12)C(=O)N[C@@H](CCCCN)C(=O)N[C@@H](C)C(=O)N[C@@H](CCC(N)=O)C(=O)N[C@@H](CCCCN)C(=O)N[C@@H](CCCNC(=N)N)C(=O)N[C@@H](Cc1ccccc1)C(=O)N[C@@H](CC(C)C)C(=O)N[C@@H](CCCCN)C(=O)O [Peptide 8b, ckisgkwkaqkrflk] | – | – | % Killing of 5 × 10^6 Bacteria ([1]; type 1, 1.5e-6 M): 88%
18 | CC[C@H](C)[C@H](NC(=O)[C@@H](N)CCCCN)C(=O)N[C@@H](CO)C(=O)NCC(=O)N[C@@H](CCCCN)C(=O)N[C@@H](Cc1c[nH]c2ccccc12)C(=O)N[C@@H](CCCCN)C(=O)N[C@@H](C)C(=O)N[C@@H](CCC(N)=O)C(=O)N[C@@H](CCCCN)C(=O)N[C@@H](CCCNC(=N)N)C(=O)N[C@@H](Cc1ccccc1)C(=O)N[C@@H](CC(C)C)C(=O)N[C@@H](CCCCN)C(=O)O [Peptide 8a, kisgkwkaqkrflk] | – | – | % Killing of 5 × 10^6 Bacteria ([1]; type 1, 6.0e-6 M): 79%
